This is an account of results in ChEMBL document CHEMBL5370632, “Expanding the Chemical Space: New Approach to Cell-Permeable Drugs” (ACS Med Chem Lett, 2023).

Assay [1] has as its system K562. Description: Antiproliferative activity against human K562 cells assessed as inhibition of cell growth incubated for 3 days by celltiter-glo 2.0 assay. It is filed as functional, cell-based. The settings on record: K562, 72 h. (In ATP-based viability assays light output follows the ATP content of the culture.)
For assay [2], the system named is K562. The experiment in a line: Antiproliferative activity against human K562 cells expressing ABL T315I mutant assessed as inhibition of cell growth incubated for 3 days by celltiter-glo 2.0 assay. Type of assay: functional, cell-based. The settings on record: K562, 72 h.
The target of assay [3] is Bcr/Abl fusion protein (Homo sapiens, UniProt P00519). It is filed as protein assay.
Description: Inhibition of wild type human BCR-ABL1 using Tyr2 peptide as substrate incubated for 1 hrs by FRET based Z-LYTE assay
Assay [4] deals with Bcr/Abl fusion protein (Homo sapiens, UniProt P00519, T315I). The experiment in a line: Inhibition of human BCR-ABL1 T315I mutant using Tyr2 peptide as substrate incubated for 1 hrs by FRET based Z-LYTE assay. It is filed as protein assay.
Assay [5] deals with K562. The experiment in a line: cells. The conditions noted are these: Homo sapiens, K562, 72 h.
Assay [6] relates to K562. The experiment in a line: cells. The settings on record: Homo sapiens, K562, 72 h. This is another data set of the same source.

The term EC50 denotes the concentration that produces a half-maximal response.

Structures are written as SMILES.

Turning to `Cc1nc(Nc2ncc(C(=O)Nc3c(C)cccc3Cl)s2)cc(N2CCN(C(=O)CCOCCOCCOCCOCCOCCOCCOCCOCCOCCOCCOCCOCCNC(=O)C3CCN(c4ncc(C(=O)Nc5ccc(OC(F)(F)Cl)cc5)cc4-c4ccn[nH]4)CC3)CC2)n1`, the 50% effective concentration (EC50) in the assay with K562 [1] was 2.47 nM; with K562 [2], above 300 nM; at Bcr/Abl fusion protein [3], 0.44 nM; at Bcr/Abl fusion protein [4], 7.23 nM.

Consider `Cc1nc(Nc2ncc(C(=O)Nc3c(C)cccc3Cl)s2)cc(N2CCN(C(=O)CCOCCOCCOCCOCCOCCOCCOCCOCCOCCOCCNC(=O)C3CCN(c4ncc(C(=O)Nc5ccc(OC(F)(F)Cl)cc5)cc4-c4ccn[nH]4)CC3)CC2)n1`, for which the half-maximal effective concentration (EC50) in the assay on K562 [1] was 2.49 nM; with K562 [2], above 300 nM; on Bcr/Abl fusion protein [3], 0.8 nM; at Bcr/Abl fusion protein [4] it was 23.8 nM.

On to `Cc1ccc(C(=O)Nc2ccc(CN3CCN(C(=O)CCOCCOCCOCCOCCOCCOCCOCCOCCOCCOCCOCCOCCOCCOCCOCCOCCOCCOCCOCCOCCOCCOCCOCCOCCNC(=O)C4CCN(c5ncc(C(=O)Nc6ccc(OC(F)(F)Cl)cc6)cc5-c5ccn[nH]5)CC4)CC3)c(C(F)(F)F)c2)cc1C#Cc1cnc2cccnn12`, for which the 50% effective concentration (EC50) with K562 [1] turned out to be 0.87 nM; in the assay on K562 [2] it was 26.3 nM; at Bcr/Abl fusion protein [3], 3.57 nM; at Bcr/Abl fusion protein [4], 64 nM.

With `Cc1nc(Nc2ncc(C(=O)Nc3c(C)cccc3Cl)s2)cc(N2CCN(CCO)CC2)n1` [DASATINIB], the EC50 in the assay on K562 [5] is 12 nM; in the assay on K562 [6], 0.26 nM.
